Test results taken from patent US20140363841A1, “INDUCED PLURIPOTENT STEM CELL (IPSC)-DERIVED CARDIOMYOCYTE-LIKE CELLS AND USES THEREOF” (priority 2012, published 2014).
“And” between values parts separate entries of the source, which are not always exact repeats. Equal entries are not always repeated. Where two headings read alike, the source gives them in different places.

How the values were obtained:
[1] = test system: hiPSC-CMs (human induced pluripotent stem cell-derived cardiomyocyte-like cells, lines C2 and C3); test: Multielectrode array (MEA) field potential recording: cFPD and FPmin; type: cell-based; details: for FPmin (normalized values): baseline 100±0; for change in FPmin (in words) / changes in cFPD (in words): drug alone; for changes in cFPD (in words): CMs from both cell lines; for cFPD (normalized) after reversal of isoprenaline-reduced cFPD: beta-blocker applied after isoprenaline (0.1 μM); for cFPD effect relative to human ETPC unbound range (in words): non-linear regression of normalized cFPD, dose range 10^−9-10^−4 M
Protocol: Human iPSC lines [MSnviPSNF2 (C2), MSnviPSNF3 (C3)] were maintained on 1% matrigel (BD Biosciences, CA, USA) and grown in chemically defined mTeSR1 medium (Stem Cell Technologies, VA, Canada). Care was taken to manually remove the differentiated areas (<10%) with the help of a scraper before passaging. Cells were washed with DMEM-F12 (Invitrogen, USA) and incubated with 1 mg/ml dispase (Sigma, USA) for 5-7 minutes. Cells were then washed with DMEM-F12 and colonies scrapped from the culture dishes. Controlled tituration of the colonies was performed to get small clumps of approximately 50-70 μm in size for replating on new matrigel coated dishes (1:6 split ratio).
Subsequently, EBs were plated on 0.1% gelatin coated dishes in EB medium without SB203580. […] Beating areas were manually cut after day 21 of differentiation and utilized for various experiments.
(§1) To characterize the electrophysiological properties of the hiPSC-CMs, a multielectrode array (MEA) recording system (Multichannel Systems, Reutlingen, Germany) was used. The contracting areas were microdissected and plated on gelatin coated MEA plates. The MEA system allows simultaneous recordings from 60 titanium nitride electrodes (30 μm) at high spatial (200 μm) and temporal (15 kHz) resolutions. To assess the effects of different drugs on the electrophysiological properties, the stock drugs in DMSO were diluted in medium (2 mL). All drugs utilized in the study were purchased from Sigma, USA. Extracellular recording were performed for 180-300 seconds at baseline and at 5 minutes after drug application. The local activation maps were generated using Cardio2D software (Multichannel Systems, Reutlingen, Germany). The recorded electrograms were also used to determine the local field potential (FP) duration (FPD).
Comparisons at each time point were conducted using analysis of variance (ANOVA), and all data are presented as mean values±s.e.m of three independent experiments. Differences were considered statistically significant at p≦0.05. Corrected field potential duration curves were fitted using the one phase decay algorithm from GraphPad Prism software.

hiPSC-CMs [2] = details: for modulation of beating rates (in words): beta-blocker applied alone; for effect on isoprenaline-induced increase in beating frequencies (in words): clusters initially treated with isoprenaline
From the text: as §1
The different agents were also evaluated to determine if these agents (drugs) could induce arrhythmia in hiPSC-CMs at supraphysiological ranges.

hiPSC-CMs [3] = test: MEA conduction velocity; type: cell-based, human
From the text: as §1

[4] = test system: contracting EBs (iPSC-derived cardiomyocyte-like cells); test: Beat rate variability analysis in beta-adrenergic response (power spectral density of RR intervals); type: cell-based, human; details: 0.1 μM isoprenaline, then 1 μM beta-blocker where stated
From the text: To study the autonomic modulations of beating period of the contracting EBs, power spectral density of beat-to-beat or RR intervals based on 5-min recordings from the MEA were used to derive the Total Power (TP), very low frequency power (VLF), low frequency power (LF), high frequency power (HF), LF (normalized unit), HF (normalized unit) and ratio of LF/HF of spectral of beat rate variability using software such as HRV Toolkit (physionet.org/tutorials/hrv-toolkit/, Harvard Medical School) or LabVIEW Biomedical Toolkit for heart rate variability. […] The data were obtained using iPSC-derived cardiomyocyte-like cells from an individual with genetic pre-disposition to cardiac arrhythmia (n=4; referring to 4 regional areas within an EB), and iPSC-derived cardiomyocyte-like cells from a normal individual without genetic pre-disposition to cardiac arrhythmia (n=10).

[5] = human, unbound therapeutic plasma concentration; cited from earlier work
[6] = EBs from individual with genetic disposition to arrhythmia (n=4)
[7] = EBs from normal healthy donor (n=10)
[8] = over all three tested doses (range 0.01-10 μM)

CCCCc1oc2ccccc2c1C(=O)c1cc(I)c(OCCN(CC)CC)c(I)c1 [amiodarone, Amiodarone]
cFPD prolongation ([1]; 1 μM): 37%
cFPD ([1]; 1 μM, C2 derived CM, baseline 0.26±0.009 s, n=3): 0.36 ± 0.01 s
FPmin shortening ([1]; 1 μM, C2 derived CMs): 25%
FPmin (normalized values) ([1]; 1 μM, C2 derived CMs, n=3): 73.6±3.8
FPmin (normalized values) ([1]; 1 μM, C3 derived CMs, n=3, ns): 90±2.7
FPmin reduction ([1]; 1 μM, C3 derived CMs, ns): 10%
effect on beating frequencies (in words) (hiPSC-CMs [2]; higher doses, 10-100 μM): increased beating frequencies

O=C(NCC1CCCCN1)c1cc(OCC(F)(F)F)ccc1OCC(F)(F)F (centres unmarked) [flecainide, Flecainide]
increase in cFPDs ([1]; 1 μM): 1.7 fold
cFPD ([1]; 1 μM, C2 derived CMs, baseline 0.32±0.04 s, n=3): 0.55 ± 0.06 s
change in FPmin (in words) [1]: did not show any significant change
increase in beating frequencies (hiPSC-CMs [2]; 10 μM): 2 fold
reduction of conduction velocity (hiPSC-CMs [3]; 1 μM): 45%
reduction of conduction velocity (in words) (hiPSC-CMs [3]; lowest dose, 0.01 μM): did not show any significant reduction

CC(C)NCC(O)c1ccc(O)c(O)c1 (centres unmarked) [isoprenaline]
HF (normalized unit) [4, 6]: 38.864±16.674%
LF (normalized unit) [4, 6]: 61.136±16.674%
LF/HF ratio [4, 6]: 1.897±1.052
Total Power (TP) of beat rate variability [4, 6]: 0.464±0.047 ms^2
high frequency power (HF) [4, 6]: 0.064±0.095 ms^2
low frequency power (LF) [4, 6]: 0.058±0.043 ms^2
very low frequency power (VLF) [4, 6]: 0.341±0.167 ms^2
HF (normalized unit) [4, 7]: 25.494±2.381%
LF (normalized unit) [4, 7]: 74.505±2.380%
LF/HF ratio [4, 7]: 2.949±0.326
Total Power (TP) of beat rate variability [4, 7]: 0.645±0.001 ms^2
high frequency power (HF) [4, 7]: 0.017±0.002 ms^2
low frequency power (LF) [4, 7]: 0.050±0.001 ms^2
very low frequency power (VLF) [4, 7]: 0.578±0.002 ms^2
cFPD reduction ([1]; 0.1 μM): 20%
cFPD (normalized) ([1]; 0.1 μM isoprenaline, baseline 100±0.0%, n=3): 81.2±2.4% and 79.6±3.4%
effect on beating frequencies (in words) (hiPSC-CMs [2]; clusters treated with the beta-adrenergic agonist): significant increase in beating frequencies

CCN(CC)CC(=O)Nc1c(C)cccc1C [lidocaine, Lidocaine]
changes in cFPD (in words) [1]: did not demonstrate any significant changes
effect on FPmin, dose-dependent treatment (in words) ([1]; maximal effects at 10 μM dosage): FPmin shortening
reduction of conduction velocity (hiPSC-CMs [3]; [8]): 40%

CC(C)(C)NCC(O)COc1cccc2c1CC(O)C(O)C2 (centres unmarked) [nadolol, Nadolol]
cFPD (normalized) after reversal of isoprenaline-reduced cFPD ([1]; n=3): 92.3±1.5%
change in FPmin (in words) [1]: did not have any significant effects
changes in cFPD (in words) [1]: did not have any significant effects
cFPD effect relative to human ETPC unbound range (in words) [1]: no significant cFPD prolongation within the ETPC unbound range
modulation of beating rates (in words) (hiPSC-CMs [2]): not apparent
effect on isoprenaline-induced increase in beating frequencies (in words) (hiPSC-CMs [2]): reversed
ETPC unbound range [5]: 0.18 to 0.80 µM

CC(C)NCC(O)COc1cccc2ccccc12 (centres unmarked) [propranolol, Propranolol]
cFPD (normalized) after reversal of isoprenaline-reduced cFPD ([1]; n=3): 98.3±4.5%
change in FPmin (in words) [1]: did not have any significant effects
changes in cFPD (in words) [1]: did not have any significant effects
modulation of beating rates (in words) (hiPSC-CMs [2]): not apparent
effect on isoprenaline-induced increase in beating frequencies (in words) (hiPSC-CMs [2]): reversed
effect on beating frequencies (in words) (hiPSC-CMs [2]; higher doses, 10-100 μM): did not show any major effect

C=C[C@H]1C[N@@]2CC[C@H]1C[C@@H]2[C@@H](O)c1ccnc2ccc(OC)cc12 [quinidine, Quinidine]
FPmin shortening ([1]; 10 μM, C2 cell line derived CMs): 55%
FPmin (normalized) ([1]; 10 μM, C2 cell line derived CMs, baseline 100, n=3): 45±3.5%
cFPD ([1]; 10 μM, C2 line derived CMs, baseline 0.31±0.03 s, n=3): 0.50 ± 0.05 s
maximum FPmin shortening ([1]; 10 μM, C3 cell line derived CMs): 37%
cFPD prolongation ([1]; 10 μM, CMs derived from C2 line): 62%
cFPD prolongation ([1]; 10 μM, hiPSC-CMs (FIG. 1A, C)): 55%
increase in beating frequencies (hiPSC-CMs [2]; 100 μM): 3 fold
beating frequency (BF) (hiPSC-CMs [2]; 100 μM, baseline 0.66±0.06 Hz, n=3): 1.84±0.08 Hz
reduction of conduction velocity (hiPSC-CMs [3]; [8]): 20-25%

CC(C)NCC(O)c1ccc(NS(C)(=O)=O)cc1 (centres unmarked) [sotalol, Sotalol]
cFPD prolongation ([1]; 50 μM): 65%
change in FPmin (in words) [1]: did not show any significant change
cFPD effect relative to human ETPC unbound range (in words) [1]: maximally observed within the human ETPC range
increase in beating frequencies (hiPSC-CMs [2]; 500 μM): 1.8 fold
ETPC unbound range [5]: 1.8 to 14 µM

COc1ccc(CCN(C)CCCC(C#N)(c2ccc(OC)c(OC)c2)C(C)C)cc1OC (centres unmarked) [verapamil, Verapamil]
effect on beating frequencies (in words) (hiPSC-CMs [2]): significantly reduced beating frequencies
effect of prolonged exposure (in words) (hiPSC-CMs [2]; 5 μM): beating arrest
